Source: patent publication US20100322861A1, “ENGINEERED CELLS, IMAGING REPORT GENE/PROBE SYSTEMS, AND METHODS OF IMAGING” (priority 2007, published 2010)
Each block holds one compound with its values, some of them ahead of it.

Tests used:
HSV1-tk expressing CTLs = test: In vitro assays of Ganciclovir induced cell death of HSV1-tk expressing CTLs; assay type: cell-based, human; conditions: previous in vitro assays
[1] = test system: cytolytic T cells expressing IL13 zetakine and HSV1-tk genes; test: [18F]FHBG PET imaging of infused HSV1-tk expressing CTLs in a glioma patient; assay type: in vivo, human
From the text: The CTLs were imaged with the PET reporter probe 9-[4-[^18F]Fluoro-3-(hydroxymethyl)butyl]guanine ([^18F]FHBG), because they constitutively express the PET reporter gene (PRG) HSV1-tk. (4) [^18F]FHBG is approved by the FDA as an investigational new drug (IND #61,880) for PET imaging at UCLA and Stanford University nuclear medicine clinics. UCLA's medical internal review board (M-IRB) has approved [^18F]FHBG PET imaging in normal volunteers, glioma patients and glioma patients who are enrolled in adoptive cellular gene therapy, when the infused cells express the PRG HSV1-tk. Stanford University's M-IRB has approved [^18F]FHBG PET imaging in glioma patients. COHNMC's M-IRB has approved referral of the patient's enrolled in the CTL therapy study for [^18F]FHBG PET imaging at UCLA.
254.62 MBq (6.88 mCi) [^18F]FHBG was injected through the other iv line (FDA limit 7 mCi). At approximately two-hours and fifteen minutes after [^18F]FHBG injection, the whole-body PET emission scan started from the patient's head to bottom, using an ECAT EXACT HR+PET scanner (CTI/Siemens, Inc., Knoxville, Tenn.). The whole-body scan consisted of 7 bed positions (7-minutes each). Three minute transmission scans followed each 7 minute emission scans. A two bed position head scan immediately followed completion of the whole-body scan. […] In addition, enhanced [^18F]FHBG accumulation was observed near the patient's corpus callosum. This indicates trafficking of infused CTLs to the remote corpus callosum tumor. The level of [^18F]FHBG accumulation is greater than what has been observed in control GBM patients who had tumor resections or intact tumors. Table 1 (FIG. 6) includes quantitative data of tumor to background ratios, comparing [^18F]FHBG accumulation levels of the CTL infused patient described in this example and control patients. Relative to similar controls, [^18F]FHBG accumulation is 2.6× higher in the patient's tumor resection site and 2.8× higher in the remote corpus callosum tumor site. […] Finally, a stereotactic biopsy of the left sided corpus callosum within a week of the [^18F]FHBG PET scan confirmed the presence of malignant disease infiltrated with CD8+ T cells.

[2] = in vivo, iv
From the text: Two coronal slices are shown to illustrate activity within the liver, gall-bladder, intestines, kidneys and bladder, which are organs involved with [^18F]FHBG's clearance from the body.

HSV1-TK = test: Cell culture uptake assay of [3H]Penciclovir into patient CTLs versus control Jurkat cells; assay type: cell-based, Herpes Simplex Virus 1; conditions: about 1 μCi/ml, control Jurkat cells not expressing HSV1-tk
Description: FIG. 5 is a bar graph that illustrates the uptake of [^3H]Penciclovir into the genetically engineered CTL clone that was infused into the patient and control Jurkat cells. The autologous patient CTLs were genetically engineered to constitutively express HSV1-tk. The control cells expressed Firefly luciferase instead of HSV1-tk. […] The symbol “*” indicates significant difference between uptake of [^3H]PCV into patient CTLs vs control cells at 4 hours (P<0.001).
The patient of the present example received a total of approximately 1×10^9 CTLs within a five-week period of direct infusions (one week break between weeks 2 and 4). It is both possible that these cells proliferate or some die once injected into the patient. The number of cells present within the tumor resection site and the intact tumor near the corpus callosum could not be specifically quantified. That would require a pharmacokinetic model ((2004) J Nucl Med 45, 1560-1570, which is incorporated herein by reference) for [^18F]FHBG at brain tumor sites and knowing HSV1-tk expression levels per CTL at imaging time. […] This low level of activity explains why [^18F]FHBG accumulation in CTL infusion sites and intact tumor is only 2-3× higher than background. In fact during uptake assay cultured cells were exposed to a relatively constant concentration of about 1 μCi/ml; whereas assuming homogeneous distribution of [^18F]FHBG in 6 liters of blood, the maximum concentration CTLs would have been exposed to within the first 1-2 minutes after injection would have been about 1 μCi/ml, but then there is a rapid decline in blood concentration of [^18F]FHBG within the first 20-40 minutes following it's injection. Despite that, [^18F]FHBG's ability to detect the CTLs may be due to the low background within the surrounding brain tissue and the presence of a large number of CTLs.

Compound: Nc1nc(O)c2ncn(COC(CO)CO)c2n1 [Ganciclovir]
Ganciclovir induced cell death of CTLs (HSV1-tk expressing CTLs): susceptibility to Ganciclovir induced cell death

clearance from tissues not involved in its clearance ([2]; human): clears very rapidly
time of rapid decline in blood concentration following injection [2]: 20 to 40 min
Compound: Nc1nc2c(ncn2CCC(CO)C[18F])c(=O)[nH]1 (stereo not drawn) [[^18F]FHBG, 9-[4-[^18F]fluoro-3-(hydroxymethyl)butyl]guanine]
tumor 2/meninges [18F]FHBG activity ratio ([1]; CTL infused patient, non-resected tumor near corpus callosum, images approximately two hours after injection): 1.57
tumor 1/meninges [18F]FHBG activity ratio ([1]; CTL infused patient, surgically resected tumor site, images approximately two hours after injection): 1.75
[18F]FHBG accumulation versus background ([1]; CTL infusion sites and intact tumor): 2-3 ×
average intact tumor site to meninges [18F]FHBG activity ratio ([1]; control patients (no CTLs)): 0.44
average resected tumor site/meninges [18F]FHBG activity ratio ([1]; control patients (no CTLs)): 0.86
[18F]FHBG accumulation relative to similar controls ([1]; patient's tumor resection site): 2.6 ×
[18F]FHBG accumulation relative to similar controls ([1]; remote corpus callosum tumor site): 2.8 ×
[18F]FHBG accumulation in the CTL infused patient versus control patients ([1]; resection site and intact tumor, quantitative analysis): greater than two times higher

Compound: [^3H]Penciclovir
[3H]PCV uptake into CTL clone relative to control cells (HSV1-TK; 1 h): 2.7 ×
[3H]PCV uptake into CTL clone relative to control cells (HSV1-TK; 1 h, listed as [^3H]PCV): approximately 3 ×
[3H]PCV uptake into CTL clone relative to control cells (HSV1-TK; 4 h): 9.3 ×
[3H]PCV uptake into CTL clone relative to control cells (HSV1-TK; 4 h, listed as [^3H]PCV): ~9 ×
